Data as given in patent US8178551B2 (Green Cross Corporation, priority 2007, dated 2012).
Structures can show the parent of a compound that is named as a salt.

Columns and labels:
MDCK monolayers [1] = settings: MDCK Papp; cited from earlier work
[2] = Drug transport assay with MDCK monolayers (apparent permeability, Papp); assay type: in vitro ADME; settings: dog, MDCK, apical to basolateral, 37° C.
Experimental: (§1) Experiment 1. Permeability Measurement by Performing a Drug Transport Assay with MDCK Monolayers
(§2) (+)-3-HM was dissolved in DMSO at 10 mM and stored at 4° C. MDCK cells were obtained from the ATCC (American Type Culture Collection, CCL-34). MDCK cells were maintained in DMEM (Dulbecco's MEM with high glucose) containing 1×NEAA (Non-essential amino acids), 10 mM HEPES, 100 units penicillin, 0.1 mg/ml streptomycin and 8% FBS. The cells were cultivated in T-75 flasks in a cell culture incubator at 37° C. MDCK cells were passaged twice per week. When the cells were 90% confluence, the cells were plated at 1×10^5 cells/well in transwell. The cells were fed with fresh medium every other day. The Cells were grown to confluence on the transwell for 5 days. When the cells have reached confluence and are differentiated, they are ready to be used for transport studies. The TEER (Transepithelial electrical resistance) of each well was measured by Millicell-ERS system ohm meter. The electrode was immersed in 70% ethanol and PBS for 15 minutes. […] MDCK monolayers with TEER values >400Ω were used. After the each well was washed by using sterile HBSS (hank's buffered solution) and (+)-3-HM was diluted 100-fold in HBSS, the apical wells were filled with 200 ul of the test compounds. The basolateral wells were filled with 1 ml of HBSS buffer. Only 0.1% DMSO treated wells prepared to adjust for analysis. The cells were incubated at 37° C. for 1 hour. At the end of the transport period, the result samples were removed from the apical (150 ul) and basolateral (900 ul) wells. The representative compounds of Examples were conducted in same conditions.
(§3) Experiment 2. The HPLC Analysis and the Calculation of Papp
(§4) HPLC analyses were performed using a WATERS HPLC system. A ZORBAX Eclipse XDB-C18 (4.6×250 mm, 5 μm particle size) was used. The optimal operating conditions are as followed; Mobile phase A is composed of distilled water-acetonitrile (ACN) (9:1, v/v) with 0.1% trifluoroacetic acid (TFA), and mobile phase B is 90% acetonitrile with 0.1% TFA. All buffers were used after the 0.45 μm filtration.
(§5) The UV detection was performed at 280 nm or the fluorescence detection was performed at Excitation in 228 nm and Emission in 330 nm.
(§6) The concentration of A and B buffer was performed by the gradient method and the total analysis time was 38 min. The optimal operating conditions: elution gradient 0-10 min (10-50%), 10-20 min (50-90%), 20-25 min (90%), 25-27 min (90-10%), 27-38 min (10%). After the analysis of HPLC, the percentage of area of (+)-3-HM and the compound of Example 2 were calculated by remained concentration (μg/ml).
(§7) The apparent permeability coefficients (Papp), expressed in nm/sec, were calculated by the following equation: Permeability (Papp)=(Receiver Volume×Receiver Conc.)/(Filter surface area×Reaction Time×donor Conc.)×10^7.

MDCK monolayers [3] = assay: as above; assay type: in vitro ADME; settings: apical to basolateral, 37° C., 1 hour
Experimental: as §1, §2, §3, §4, §5, §6, §7

[4] = known drugs; cited from earlier work
[5] = tested on: MPTP-induced Parkinson's disease animal model; settings: daily injections, literature; cited from earlier work

Structure (SMILES) | Papp A→B at 1 h, 100 µM [2] | other results
CC(C(=O)O)c1cccc(C(=O)c2ccccc2)c1 (stereo not shown) [ketoprofen] | – | Permeability values for known drugs (MDCK monolayers [1]): 20 ×10⁻⁶ cm/s
O=C(OCOc1ccc2c(c1)[C@]13CCCC[C@@H]1[C@H](C2)NCC3)OC1CCCC1 [Example 6, (+)-Cyclopentyl(morphinan-3-yloxy)methyl carbonate] | 20.6 ×10⁻⁶ cm/s | –
CC(Cc1ccccc1)OC(=O)OCOc1ccc2c(c1)[C@]13CCCC[C@@H]1[C@H](C2)NCC3 (stereo partly drawn) [Example 31, (+)-(Morphinan-3-yloxy)methyl 1-phenylpropan-2-yl carbonate TFA] | 22.3 ×10⁻⁶ cm/s | –
CCC(C)C(=O)OCOc1ccc2c(c1)[C@]13CCCC[C@@H]1[C@H](C2)NCC3 (stereo partly drawn) [Example 66, (+)-(Morphinan-3-yloxy)methyl 2-methylbutanoate TFA] | 16.2 ×10⁻⁶ cm/s | –
CCC(CC)C(=O)OCOc1ccc2c(c1)[C@]13CCCC[C@@H]1[C@H](C2)NCC3 [Example 54, (+)-(Morphinan-3-yloxy)methyl 2-ethylbutanoate TFA] | 28.9 ×10⁻⁶ cm/s | –
CCCCC(CC)C(=O)OCOc1ccc2c(c1)[C@]13CCCC[C@@H]1[C@H](C2)NCC3 (stereo partly drawn) [Example 60, (+)-(Morphinan-3-yloxy)methyl 2-ethylhexanoate TFA] | 20.2 ×10⁻⁶ cm/s | –
CCCC(C)OC(=O)OCOc1ccc2c(c1)[C@]13CCCC[C@@H]1[C@H](C2)NCC3 (stereo partly drawn) [Example 41, (+)-(Morphinan-3-yloxy)methyl pentan-2-yl carbonate TFA] | 23.1 ×10⁻⁶ cm/s | –
O=C(OCOc1ccc2c(c1)[C@]13CCCC[C@@H]1[C@H](C2)NCC3)OCC1CCC1 [Example 17, (+)-Cyclobutylmethyl(morphinan-3-yloxy)methyl carbonate TFA] | 22.7 ×10⁻⁶ cm/s | –
CC(C)OC(=O)OCOc1ccc2c(c1)[C@]13CCCC[C@@H]1[C@H](C2)NCC3 [Example 80, (+)-Isopropyl(morphinan-3-yloxy)methyl carbonate L-(+)-tartaric acid] | – | Papp (MDCK monolayers [3]): 18.57 ×10⁻⁶ cm/s
CCC(C(=O)OCOc1ccc2c(c1)[C@]13CCCC[C@@H]1[C@H](C2)NCC3)c1ccccc1 (stereo partly drawn) [Example 72, (+)-(Morphinan-3-yloxy)methyl 2-phenylbutanoate TFA] | 13.1 ×10⁻⁶ cm/s | –
O=C(OCOc1ccc2c(c1)[C@]13CCCC[C@@H]1[C@H](C2)NCC3)OCC1CCCCC1 [Example 9, (+)-Cyclohexylmethyl(morphinan-3-yloxy)methyl carbonate] | 48.7 ×10⁻⁶ cm/s | –
C[C@@H]1C[C@H]2[C@@H]3CCC4=CC(=O)C=C[C@]4(C)[C@@]3(F)[C@@H](O)C[C@]2(C)[C@@]1(O)C(=O)CO [dexamethasone] | – | human absorption [4]: 98%
CC(C)C(=O)OCOc1ccc2c(c1)[C@]13CCCC[C@@H]1[C@H](C2)NCC3 [Example 44, (+)-(Morphinan-3-yloxy)methyl isobutyrate] | 21.2 ×10⁻⁶ cm/s | –
O=C(OCOc1ccc2c(c1)[C@]13CCCC[C@@H]1[C@H](C2)NCC3)C1CCCC1 [Example 58, (+)-(Morphinan-3-yloxy)methyl cyclopentanoate TFA] | 6.05 ×10⁻⁶ cm/s | –
O=C(OCOc1ccc2c(c1)[C@]13CCCC[C@@H]1[C@H](C2)NCC3)OC1CCC1 [Example 37, (+)-Cyclobutyl(morphinan-3-yloxy)methyl carbonate TFA] | 13.6 ×10⁻⁶ cm/s | –
Oc1ccc2c(c1)[C@@]13CCCC[C@H]1[C@@H](C2)NCC3 [HM, (+)-3-hydroxymorphinan] | 3.33 ×10⁻⁶ cm/s | neuroprotective property in MPTP models (DA neurons in substantia nigra pars compacta, striatal DA levels) [5]: dopamine (DA) neurons in substantia nigra pars compacta have been protected and DA levels in striatum has been restored
CC(C)(C)C(=O)OCOc1ccc2c(c1)[C@]13CCCC[C@@H]1[C@H](C2)NCC3 [Example 105, (+)-(Morphinan-3-yloxy)methyl pivalate salicylic acid] | 20.3 ×10⁻⁶ cm/s | –
CC(C)OC(=O)OCOc1ccc2c(c1)[C@]13CCCC[C@@H]1[C@H](C2)NCC3 [Example 2, (+)-Isopropyl(morphinan-3-yloxy)methyl carbonate] | 26.2 ×10⁻⁶ cm/s | –
O=C(OCOc1ccc2c(c1)[C@]13CCCC[C@@H]1[C@H](C2)NCC3)C1CC1 [Example 68, (+)-(Morphinan-3-yloxy)methyl cyclopropanecarboxylate TFA] | 10.1 ×10⁻⁶ cm/s | –
O=C(OCOc1ccc2c(c1)[C@]13CCCC[C@@H]1[C@H](C2)NCC3)C1CCCCC1 [Example 56, (+)-(Morphinan-3-yloxy)methyl cyclohexanoate TFA] | 9.43 ×10⁻⁶ cm/s | –
CC(C)CC(=O)OCOc1ccc2c(c1)[C@]13CCCC[C@@H]1[C@H](C2)NCC3 [Example 70, (+)-(Morphinan-3-yloxy)methyl 3-methylbutanoate TFA] | 16.6 ×10⁻⁶ cm/s | –
O=C(OCOc1ccc2c(c1)[C@]13CCCC[C@@H]1[C@H](C2)NCC3)OCC1CCCC1 [Example 15, (+)-Cyclopentylmethyl(morphinan-3-yloxy)methyl carbonate TFA] | 33.7 ×10⁻⁶ cm/s | –
CC(C)COC(=O)OCOc1ccc2c(c1)[C@]13CCCC[C@@H]1[C@H](C2)NCC3 [Example 23, (+)-Isobutyl(morphinan-3-yloxy)methyl carbonate TFA] | 20.3 ×10⁻⁶ cm/s | –
O=C(OCOc1ccc2c(c1)[C@]13CCCC[C@@H]1[C@H](C2)NCC3)OC1CCCCCC1 [Example 27, TFA] | 23.4 ×10⁻⁶ cm/s | –
O=C(OCOc1ccc2c(c1)[C@]13CCCC[C@@H]1[C@H](C2)NCC3)OCC1CC1 [Example 4, (+)-Cyclopropylmethyl(morphinan-3-yloxy)methyl carbonate] | 15.3 ×10⁻⁶ cm/s | –
CCCOC(=O)OCOc1ccc2c(c1)[C@]13CCCC[C@@H]1[C@H](C2)NCC3 [Example 3, (+)-(Morphinan-3-yloxy)methyl propyl carbonate] | 21.9 ×10⁻⁶ cm/s | –
O=C(OCOc1ccc2c(c1)[C@]13CCCC[C@@H]1[C@H](C2)NCC3)OC1CCCCC1 [Example 8, (+)-Cyclohexyl(morphinan-3-yloxy)methyl carbonate] | 19.7 ×10⁻⁶ cm/s | –
CC(=O)Nc1ccc(O)cc1 [acetaminophen] | – | human absorption [4]: 94%; Permeability values for known drugs (MDCK monolayers [1]): 35 ×10⁻⁶ cm/s
CCC(C)OC(=O)OCOc1ccc2c(c1)[C@]13CCCC[C@@H]1[C@H](C2)NCC3 (single isomer, unassigned; (+)) [Example 25, (+)-sec-Butyl(morphinan-3-yloxy)methyl carbonate TFA] | 20.3 ×10⁻⁶ cm/s | –
